Laboratory results from patent publication US20090208445A1, “Compositions Comprising Eucalyptol And/Or Ocimene And/Or Farnesol For Use As Bumblebee Pheromones” (QUEEN MARY & WESTFIELD COLLEGE, priority 2005, published 2009).

Key:
Bombus terrestris [1] = assay: Behavioural effect of individual compounds on forager recruitment (foragers leaving the nest in search for food); assay type: in vivo; conditions: 10 μl of 200 mg l-1 in acetone on filter paper in nest box lid every 5 min for 30 min vs preceding 30 min; 7 repeats, Wilcoxon test
Method: All experiments were performed with lab-reared colonies of Bombus terrestris with 30-50 workers. A total of ten colonies were used. Each nest was contained in a wooden box (26 cm·14 cm·10 cm), which was connected to a foraging arena (40 cm·60 cm·30 cm) with a Plexiglas tube of 30 cm length. Nest box and foraging arena had transparent Plexiglas covers, so that the behaviour of the bees could be observed. The arena contained a feeder at certain times of the experiment (see below).
To this end, 10 μl of solution of the individual compounds at 200 mg 1^−1 acetone, were dispensed onto a filter paper placed in a glass tube in the lid of the nest box. This was repeated every 5 minutes for half an hour, and numbers of foragers entering the flight arena in search for food were counted in 5 min intervals during the experimental half hour and in the preceding 30 min (control period). This experiment was repeated 7 times which each individual compound. In addition, 7 control runs were performed with acetone, to exclude the possibility that the solvent itself provoked a behavioural response. Tests were done in random sequence with three bumblebee colonies, with at least 4 h between tests on a single colony. None of the compounds were tested twice on the same day with the same colony.

Bombus terrestris [2] = assay: Mobilisation of individually marked foragers of a colony by eucalyptol; assay type: in vivo
Method: To this end, all foragers were marked that arrived at an ad libitum sucrose feeder in a flight arena connected to a large nest (with >80 workers), over a period of two days. Bees were given individual number plates (Opalith). Then the colony was starved for 1 day, and on the next day, a sucrose feeder was inserted into the arena for one hour. After 30 min, the colony was exposed to eucalyptol as described above. Bees were caught immediately upon arrival, so that they could not provide feedback to the colony.

Row | Compound | Effect on numbers of foragers leaving the nest in search for food (Bombus terrestris [1]) | Time for the remaining foragers to arrive after exposure of the colony (Bombus terrestris [2]; 13 remaining of 17 active foragers) | Forager force of the colony activated (Bombus terrestris [2]; colony with 17 active marked foragers, starved 1 day, eucalyptol inserted after 30 min) | Number of foragers arriving at the feeder after exposure of the colony (Bombus terrestris [2]; of 17 active foragers, 4 had arrived in the 30 min before exposure)
1 | CC(C)=CCCC(C)=CCCC(C)=CCO [E,E-farnesol, 3,7,11-trimethyl-2,6,10-dodecatrien-1-ol] | non-significant rise in activity |  |  | 
2 | CC12CCC(CC1)C(C)(C)O2 [Eucalyptol, 1,3,3-Trimethyl-2-oxabicyclo[2.2.2.]octane] | strongest response | ≤ 15 min | entire forager force of the colony was activated | 13 foragers
